Key:
Test in all cases: Kinase panel study
Assay type in all cases: biochemical
Details in all cases: read-out: Percentage of inhibition; for inhibition at 1 µM: 1000nM; for inhibition at 10 µM: 10000nM
[1] = target: T1, EPHB4 (Homo sapiens, UniProt P54760)
T1 construct: purchased Thermo Fisher Scientific
T1 sequence (P54760 16-987): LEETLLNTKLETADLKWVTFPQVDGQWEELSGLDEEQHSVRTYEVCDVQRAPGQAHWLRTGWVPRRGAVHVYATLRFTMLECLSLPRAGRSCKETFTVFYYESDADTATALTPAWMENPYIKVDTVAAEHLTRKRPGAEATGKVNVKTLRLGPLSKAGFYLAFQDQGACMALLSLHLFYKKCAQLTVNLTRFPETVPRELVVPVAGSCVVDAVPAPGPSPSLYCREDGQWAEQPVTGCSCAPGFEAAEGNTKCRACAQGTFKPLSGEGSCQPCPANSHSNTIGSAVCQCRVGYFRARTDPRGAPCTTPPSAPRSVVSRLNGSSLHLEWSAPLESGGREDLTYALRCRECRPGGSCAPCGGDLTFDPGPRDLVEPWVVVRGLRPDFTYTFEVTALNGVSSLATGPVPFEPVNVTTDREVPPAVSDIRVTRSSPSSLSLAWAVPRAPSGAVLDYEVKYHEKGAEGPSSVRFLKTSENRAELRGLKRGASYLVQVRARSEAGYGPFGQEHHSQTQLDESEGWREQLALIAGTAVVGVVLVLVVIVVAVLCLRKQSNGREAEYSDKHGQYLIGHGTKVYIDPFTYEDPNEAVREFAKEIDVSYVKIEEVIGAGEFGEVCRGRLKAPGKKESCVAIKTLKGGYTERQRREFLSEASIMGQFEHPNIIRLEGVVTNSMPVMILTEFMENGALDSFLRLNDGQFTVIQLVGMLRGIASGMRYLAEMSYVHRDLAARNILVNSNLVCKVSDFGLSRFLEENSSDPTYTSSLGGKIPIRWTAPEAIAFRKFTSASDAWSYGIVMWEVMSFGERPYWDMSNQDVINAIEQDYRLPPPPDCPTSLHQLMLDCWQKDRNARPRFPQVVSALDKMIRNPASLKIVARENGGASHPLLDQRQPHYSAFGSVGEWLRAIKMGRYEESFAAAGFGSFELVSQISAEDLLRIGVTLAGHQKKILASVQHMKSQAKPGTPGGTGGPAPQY
Summary of the method: (§1)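 Percent inhibition of each kinase by the test compound, given at either 1 µM or 10 µM, came from a contracted panel run by ZLyte or Adapta protocol.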

[2] = target: T2, EPHA1 (Homo sapiens, UniProt P21709)
T2 construct: purchased Thermo Fisher Scientific
T2 sequence (P21709 26-976): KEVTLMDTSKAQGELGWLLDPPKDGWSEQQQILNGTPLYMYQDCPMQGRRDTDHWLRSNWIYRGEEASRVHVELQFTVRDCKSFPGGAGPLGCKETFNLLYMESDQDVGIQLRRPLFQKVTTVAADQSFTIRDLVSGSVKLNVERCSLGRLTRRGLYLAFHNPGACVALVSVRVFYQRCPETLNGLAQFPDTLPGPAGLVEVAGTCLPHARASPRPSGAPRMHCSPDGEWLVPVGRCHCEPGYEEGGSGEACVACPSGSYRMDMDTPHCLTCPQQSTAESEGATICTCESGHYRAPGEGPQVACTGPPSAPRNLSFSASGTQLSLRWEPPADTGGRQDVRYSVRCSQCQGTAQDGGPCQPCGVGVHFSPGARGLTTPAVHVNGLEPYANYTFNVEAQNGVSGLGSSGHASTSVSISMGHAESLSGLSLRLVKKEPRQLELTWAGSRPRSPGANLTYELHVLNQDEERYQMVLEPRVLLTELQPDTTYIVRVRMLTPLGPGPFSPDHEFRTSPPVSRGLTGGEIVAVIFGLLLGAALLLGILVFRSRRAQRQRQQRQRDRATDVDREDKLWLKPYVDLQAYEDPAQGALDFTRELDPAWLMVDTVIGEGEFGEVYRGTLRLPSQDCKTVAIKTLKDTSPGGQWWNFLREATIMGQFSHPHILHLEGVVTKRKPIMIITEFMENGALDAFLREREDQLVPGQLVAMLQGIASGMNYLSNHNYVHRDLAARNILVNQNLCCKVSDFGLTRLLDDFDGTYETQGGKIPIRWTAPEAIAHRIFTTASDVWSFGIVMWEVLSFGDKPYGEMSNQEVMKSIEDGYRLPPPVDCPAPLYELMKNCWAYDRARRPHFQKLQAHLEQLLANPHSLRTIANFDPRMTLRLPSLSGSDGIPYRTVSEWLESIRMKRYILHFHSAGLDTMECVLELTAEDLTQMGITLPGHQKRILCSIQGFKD
Summary of the method: as §1

[3] = target: T3, DAPK1 (Homo sapiens, UniProt P53355)
T3 construct: purchased Thermo Fisher Scientific
Summary of the method: as §1

[4] = target: T4, LRRK2 G2019S (Homo sapiens, UniProt Q5S007, G2019S)
T4 construct: purchased Thermo Fisher Scientific
Summary of the method: as §1

[5] = target: T5, CDK17/cyclin Y (Homo sapiens, UniProt Q00537)
T5 construct: purchased Thermo Fisher Scientific
Summary of the method: as §1

[6] = target: T6, PAK7 (KIAA1264) (Homo sapiens, UniProt Q9P286)
T6 construct: purchased Thermo Fisher Scientific
Summary of the method: as §1

T4 sequence (Q5S007 970-2527 G2019S limits assumed): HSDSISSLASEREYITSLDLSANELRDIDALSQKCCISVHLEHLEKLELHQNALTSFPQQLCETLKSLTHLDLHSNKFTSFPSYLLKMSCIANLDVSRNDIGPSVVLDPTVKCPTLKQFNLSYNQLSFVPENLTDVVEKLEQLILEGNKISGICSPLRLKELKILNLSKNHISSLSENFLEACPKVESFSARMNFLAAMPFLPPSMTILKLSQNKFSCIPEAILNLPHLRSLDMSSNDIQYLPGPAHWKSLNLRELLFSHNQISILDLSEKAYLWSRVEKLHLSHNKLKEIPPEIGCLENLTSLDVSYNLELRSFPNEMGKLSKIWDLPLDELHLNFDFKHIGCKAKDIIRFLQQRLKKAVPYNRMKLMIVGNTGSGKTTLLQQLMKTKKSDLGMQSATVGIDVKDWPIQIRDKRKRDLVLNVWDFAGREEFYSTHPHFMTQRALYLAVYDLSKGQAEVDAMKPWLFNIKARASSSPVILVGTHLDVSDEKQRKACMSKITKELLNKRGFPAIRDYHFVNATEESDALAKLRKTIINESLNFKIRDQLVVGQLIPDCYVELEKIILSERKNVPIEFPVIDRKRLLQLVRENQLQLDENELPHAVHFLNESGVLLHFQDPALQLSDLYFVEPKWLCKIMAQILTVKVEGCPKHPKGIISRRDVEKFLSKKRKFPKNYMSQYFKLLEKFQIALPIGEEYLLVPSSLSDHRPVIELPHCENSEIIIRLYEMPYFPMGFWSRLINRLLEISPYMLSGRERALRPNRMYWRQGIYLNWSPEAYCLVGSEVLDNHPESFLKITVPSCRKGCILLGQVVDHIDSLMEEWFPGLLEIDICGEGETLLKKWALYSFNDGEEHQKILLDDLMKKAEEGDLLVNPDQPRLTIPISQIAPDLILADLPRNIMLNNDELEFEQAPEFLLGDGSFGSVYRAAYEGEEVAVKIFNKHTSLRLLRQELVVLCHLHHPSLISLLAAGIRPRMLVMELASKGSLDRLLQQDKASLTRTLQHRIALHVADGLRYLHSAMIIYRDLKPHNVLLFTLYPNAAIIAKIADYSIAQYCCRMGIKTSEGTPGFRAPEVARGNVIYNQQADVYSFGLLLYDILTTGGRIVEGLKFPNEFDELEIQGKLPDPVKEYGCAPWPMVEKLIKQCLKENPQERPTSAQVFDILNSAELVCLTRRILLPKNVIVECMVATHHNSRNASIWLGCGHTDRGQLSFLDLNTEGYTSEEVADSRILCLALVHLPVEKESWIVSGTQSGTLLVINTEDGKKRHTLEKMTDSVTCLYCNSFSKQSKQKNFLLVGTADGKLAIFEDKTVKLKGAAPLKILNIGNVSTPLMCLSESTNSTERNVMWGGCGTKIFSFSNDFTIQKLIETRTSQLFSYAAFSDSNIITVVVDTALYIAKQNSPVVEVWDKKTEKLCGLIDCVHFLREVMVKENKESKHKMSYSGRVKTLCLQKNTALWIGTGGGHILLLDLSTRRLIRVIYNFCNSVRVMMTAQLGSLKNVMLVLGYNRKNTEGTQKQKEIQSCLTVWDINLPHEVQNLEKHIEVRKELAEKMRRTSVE
T5 sequence (Q00537 whole entry): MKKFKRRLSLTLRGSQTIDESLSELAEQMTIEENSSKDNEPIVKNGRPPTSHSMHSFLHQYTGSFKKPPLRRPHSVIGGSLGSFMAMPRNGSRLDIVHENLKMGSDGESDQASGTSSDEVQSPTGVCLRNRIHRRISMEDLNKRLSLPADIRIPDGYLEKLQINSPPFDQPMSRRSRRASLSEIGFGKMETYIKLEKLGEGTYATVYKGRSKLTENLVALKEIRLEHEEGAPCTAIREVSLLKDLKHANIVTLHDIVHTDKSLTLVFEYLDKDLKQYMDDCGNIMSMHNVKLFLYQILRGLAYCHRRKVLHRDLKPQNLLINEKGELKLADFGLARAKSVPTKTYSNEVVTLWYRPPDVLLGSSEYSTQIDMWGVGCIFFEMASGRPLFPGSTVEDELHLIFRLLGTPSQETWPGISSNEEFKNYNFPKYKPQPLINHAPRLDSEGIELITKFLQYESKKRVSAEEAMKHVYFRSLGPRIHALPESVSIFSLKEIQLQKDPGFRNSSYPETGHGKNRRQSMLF
T5 sequence (Q8ND76 whole entry partner): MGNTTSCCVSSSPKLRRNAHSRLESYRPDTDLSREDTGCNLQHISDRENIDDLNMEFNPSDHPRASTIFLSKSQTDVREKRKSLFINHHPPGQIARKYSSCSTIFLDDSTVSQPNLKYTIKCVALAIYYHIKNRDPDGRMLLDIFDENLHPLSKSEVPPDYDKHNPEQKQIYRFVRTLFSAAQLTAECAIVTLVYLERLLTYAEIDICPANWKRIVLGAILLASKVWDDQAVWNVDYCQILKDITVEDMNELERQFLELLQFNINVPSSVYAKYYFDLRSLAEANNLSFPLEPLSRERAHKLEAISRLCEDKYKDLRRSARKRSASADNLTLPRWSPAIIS
T6 sequence (Q9P286 whole entry): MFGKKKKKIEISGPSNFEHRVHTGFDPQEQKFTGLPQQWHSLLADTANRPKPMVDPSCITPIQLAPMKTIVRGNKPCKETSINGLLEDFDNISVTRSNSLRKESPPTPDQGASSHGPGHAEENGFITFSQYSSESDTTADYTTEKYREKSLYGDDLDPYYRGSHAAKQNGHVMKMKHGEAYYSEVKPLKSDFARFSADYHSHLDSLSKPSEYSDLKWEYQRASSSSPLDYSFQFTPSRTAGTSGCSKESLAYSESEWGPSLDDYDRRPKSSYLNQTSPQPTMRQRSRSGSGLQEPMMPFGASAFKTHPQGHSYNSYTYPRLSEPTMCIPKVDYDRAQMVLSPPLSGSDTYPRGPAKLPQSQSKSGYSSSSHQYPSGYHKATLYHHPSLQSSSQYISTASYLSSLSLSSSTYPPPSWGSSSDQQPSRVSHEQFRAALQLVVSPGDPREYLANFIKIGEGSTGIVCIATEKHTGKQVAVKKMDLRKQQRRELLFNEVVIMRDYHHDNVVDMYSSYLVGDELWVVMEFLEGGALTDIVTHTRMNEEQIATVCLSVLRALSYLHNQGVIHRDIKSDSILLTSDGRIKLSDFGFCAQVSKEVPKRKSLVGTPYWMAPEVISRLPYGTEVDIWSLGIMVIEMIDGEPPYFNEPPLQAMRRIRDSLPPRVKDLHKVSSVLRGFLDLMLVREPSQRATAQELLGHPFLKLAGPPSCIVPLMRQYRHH
T3 sequence (P53355 whole entry): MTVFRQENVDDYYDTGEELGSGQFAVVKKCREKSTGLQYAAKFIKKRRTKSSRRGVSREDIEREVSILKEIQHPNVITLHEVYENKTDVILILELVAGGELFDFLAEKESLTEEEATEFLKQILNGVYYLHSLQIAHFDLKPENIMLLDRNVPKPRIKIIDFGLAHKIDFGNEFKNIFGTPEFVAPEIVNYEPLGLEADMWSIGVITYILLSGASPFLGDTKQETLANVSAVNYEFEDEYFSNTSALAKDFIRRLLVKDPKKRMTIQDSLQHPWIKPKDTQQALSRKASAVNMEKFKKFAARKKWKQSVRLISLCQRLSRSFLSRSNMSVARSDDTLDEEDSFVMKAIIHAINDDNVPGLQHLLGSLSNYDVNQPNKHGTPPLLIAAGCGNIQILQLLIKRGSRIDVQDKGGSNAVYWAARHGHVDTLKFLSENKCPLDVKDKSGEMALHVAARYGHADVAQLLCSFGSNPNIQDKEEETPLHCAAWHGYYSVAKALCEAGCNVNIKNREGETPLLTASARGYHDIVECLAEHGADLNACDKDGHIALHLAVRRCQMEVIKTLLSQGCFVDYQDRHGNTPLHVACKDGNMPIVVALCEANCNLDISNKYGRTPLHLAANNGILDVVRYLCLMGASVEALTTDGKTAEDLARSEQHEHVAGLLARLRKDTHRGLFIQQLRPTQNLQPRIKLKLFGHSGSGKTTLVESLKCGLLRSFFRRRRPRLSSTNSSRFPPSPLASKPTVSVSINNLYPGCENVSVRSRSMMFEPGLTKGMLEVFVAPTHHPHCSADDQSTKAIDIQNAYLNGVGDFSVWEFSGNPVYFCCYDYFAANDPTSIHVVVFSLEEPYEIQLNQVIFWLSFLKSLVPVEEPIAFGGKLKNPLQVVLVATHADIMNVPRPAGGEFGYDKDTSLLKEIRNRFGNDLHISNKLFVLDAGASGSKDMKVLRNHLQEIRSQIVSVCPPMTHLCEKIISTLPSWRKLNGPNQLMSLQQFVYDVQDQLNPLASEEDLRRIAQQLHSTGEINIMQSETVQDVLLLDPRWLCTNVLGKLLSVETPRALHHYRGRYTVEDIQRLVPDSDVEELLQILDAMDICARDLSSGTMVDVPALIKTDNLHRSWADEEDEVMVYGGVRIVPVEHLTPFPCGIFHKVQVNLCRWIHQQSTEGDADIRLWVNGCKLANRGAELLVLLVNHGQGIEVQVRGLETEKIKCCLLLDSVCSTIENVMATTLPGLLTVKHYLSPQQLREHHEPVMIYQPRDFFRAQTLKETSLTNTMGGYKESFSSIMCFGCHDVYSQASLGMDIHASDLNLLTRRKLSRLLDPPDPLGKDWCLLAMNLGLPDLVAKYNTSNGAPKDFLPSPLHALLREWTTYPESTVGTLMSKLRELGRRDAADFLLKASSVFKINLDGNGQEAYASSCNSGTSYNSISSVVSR

SMILES | inhibition at 1 µM [1] [%] | inhibition at 10 µM [1] [%] | inhibition at 1 µM [2] [%] | inhibition at 10 µM [2] [%] | inhibition at 1 µM [3] [%] | inhibition at 10 µM [3] [%] | inhibition at 1 µM [4] [%] | inhibition at 10 µM [4] [%] | inhibition at 1 µM [5] [%] | inhibition at 10 µM [5] [%] | inhibition at 1 µM [6] [%] | inhibition at 10 µM [6] [%]
COc1ccc2c(c1OC)c(=O)n1c3ccc(O)cc3c3ccnc2c31 [MW01, 5-Hydroxy-10,11-dimethoxy-9H-benzo[c]indolo[3,2,1-ij][1,5]naphthyridin-9-one] | 5 | 7 | 9 | 16 | 8 | 14 | 90 | 93 | 3 | 9 | 2 | 11
COc1ccc2cc3c(N)nn(C(=O)c4cccc(N(C)C)c4)c3nc2c1 [MW05, (3-Amino-7-methoxypyrazolo[3,4-b]quinolin-1-yl)-[3-(dimethylamino)phenyl]methanone] | -3 | 2 | 11 | -5 | 3 | 3 | -2 | 16 | 8 | 21 | 15 | 13
